# Experimental data published in PMC10812467, “Peroxidasin Inhibition by Phloroglucinol and Other Peroxidase Inhibitors” (Antioxidants, 2023).
# Read-outs that look alike come from different tables or passages of the source.
# Assays:
# [1] = system: collagen IV NCD sulfilimine cross-link formation in isolated ECM from PFHR9 cells; experiment: Inhibition of collagen IV cross-linking in decellularized extracellular matrix; assay type: biochemical
# Experimental: (§1) PFHR9 cells (ATCC) were grown in Dulbecco’s Modified Eagle Medium (Gibco), supplemented with 10% heat-inactivated foetal bovine serum (Moregate) and 1% Penicillin Streptomycin (Gibco). As described previously, cells were seeded in 150 mm cell culture dishes and ECM was isolated. The concentration of the isolated ECM protein was measured (Direct Detect) and the yield was typically ~5 mg per dish. […] After 10 min, 100 μM bromide was added and the cross-link formation was started by adding 100 μM hydrogen peroxide. After 1 h at 37 °C, the reaction was stopped, by adding 1 mM sodium azide, and ECM was digested with 2 mg mL^−1 of collagenase type I (Worthington) for 48 h at 37 °C. The digest was spun (20 kg, RT, 20 min) and the extent of cross-linking of the NCD of collagen IV was determined by the resolution of the supernatant protein on a 12% sodium dodecyl-sulfate polyacrylamide gel electrophoresis (SDS-PAGE). […] Densitometric analyses of both dimer bands (Alliance Uvitec Cambridge imager) were used to determine the extent of inhibition of the cross-link formation. […] Once full confluence was reached, the medium was changed daily, and inhibitors were added at the indicated concentrations in 1 mL of medium for 7 days.
# [2] = system: collagen IV NCD sulfilimine cross-link formation of PFHR9 cells; experiment: Inhibition of collagen IV cross-linking in cell culture; assay type: cell-based; conditions: PFHR9 cells grown with inhibitor for 7 days, Western blot densitometry, n.a. = 50% inhibition not reached
# Experimental: as §1
# Human peroxidasin (PXDN) [3] = biological target: T1, Human peroxidasin (PXDN) (Homo sapiens, UniProt Q92626); experiment: Amplex oxidation activity assay in the absence of bromide; assay type: biochemical
# T1 construct: the four immunoglobulin domains and the peroxidase domain (amino acid residue 246-1314); made in house; host or cells: transient transfection
# T1 sequence (Q92626 246-1314): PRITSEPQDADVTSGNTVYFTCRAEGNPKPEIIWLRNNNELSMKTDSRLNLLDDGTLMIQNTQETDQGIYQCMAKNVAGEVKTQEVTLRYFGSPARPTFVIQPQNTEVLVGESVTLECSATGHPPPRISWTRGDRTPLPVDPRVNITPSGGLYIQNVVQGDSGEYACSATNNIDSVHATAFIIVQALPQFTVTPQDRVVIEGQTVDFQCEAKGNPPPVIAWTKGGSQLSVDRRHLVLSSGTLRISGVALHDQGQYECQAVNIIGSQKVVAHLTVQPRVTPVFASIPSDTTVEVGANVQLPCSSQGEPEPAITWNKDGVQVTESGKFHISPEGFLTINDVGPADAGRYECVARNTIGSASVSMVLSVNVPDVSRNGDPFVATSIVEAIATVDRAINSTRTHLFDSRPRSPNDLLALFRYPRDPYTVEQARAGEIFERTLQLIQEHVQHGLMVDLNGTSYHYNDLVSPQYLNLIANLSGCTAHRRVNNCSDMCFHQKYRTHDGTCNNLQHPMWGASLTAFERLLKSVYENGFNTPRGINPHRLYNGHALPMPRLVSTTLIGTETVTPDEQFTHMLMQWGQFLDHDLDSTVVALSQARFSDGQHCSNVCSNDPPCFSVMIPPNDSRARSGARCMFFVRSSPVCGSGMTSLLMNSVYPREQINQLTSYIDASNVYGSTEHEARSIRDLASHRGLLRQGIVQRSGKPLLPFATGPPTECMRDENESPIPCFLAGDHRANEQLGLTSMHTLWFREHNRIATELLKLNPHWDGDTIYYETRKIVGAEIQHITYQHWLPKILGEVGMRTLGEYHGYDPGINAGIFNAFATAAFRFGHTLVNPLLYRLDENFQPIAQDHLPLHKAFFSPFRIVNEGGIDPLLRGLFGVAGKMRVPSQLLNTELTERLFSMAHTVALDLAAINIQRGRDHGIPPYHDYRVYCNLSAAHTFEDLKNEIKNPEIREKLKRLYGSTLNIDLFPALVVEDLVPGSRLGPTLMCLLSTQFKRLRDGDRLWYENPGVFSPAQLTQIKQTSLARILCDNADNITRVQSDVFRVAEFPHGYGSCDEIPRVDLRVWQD
# Experimental: (§2) A previously characterized truncated peroxidasin variant, formerly annotated as hsPxd01-con4 [46], consisting of the four immunoglobulin domains and the peroxidase domain (amino acid residue 246-1314; numbering refers to full length PXDN including the signal peptide as shown in Uniprot Q92626), was used for all experiments using PXDN protein. Cloning, transient transfection, expression and the quality control of the purified recombinant PXDN was performed routinely, as described previously. Molar concentrations are per heme and were determined using an extinction coefficient of 147,500 M^−1 cm^−1 for the heme Soret peak at 412 nm. For the conversion to mg, a molar mass of 140,000 g mol^−1 was used and calculated from the molar concentration per heme. For simplicity we will refer to this variant as peroxidasin (PXDN) throughout the manuscript.
# (§3) 100 µL of 50 μM Amplex™ UltraRed and 20 μM hydrogen peroxide in 50 mM phosphate buffer pH 7.4 and the respective inhibitor at twice of its final concentration was added to a 96-well plate. […] The plate was incubated in the dark for 15 min at 37 °C before the fluorescence of resorufin, the resulting Amplex oxidation product, was detected using a SpectraMax iD3 fluorescent plate reader from Molecular Devices LLC, San Jose, CA 95134 (λex 544 nm, λem 590 nm, end point measurement). The same assay was also performed with 50 mM bromide present. To determine IC50 values, Amplex oxidation (measured as the end point as described above) was plotted versus the concentration of the inhibitor and expressed as % inhibition.
# Human peroxidasin (PXDN) [4] = biological target: T1, Human peroxidasin (PXDN); experiment: Amplex oxidation activity assay in the presence of bromide; assay type: biochemical
# Experimental: as §2, §3
# PXDN Compound I = biological target: T2, PXDN Compound I (Homo sapiens, UniProt Q92626); experiment: Sequential stopped-flow spectroscopy of PXDN Compound I with inhibitors; assay type: biochemical; conditions: 1 μM PXDN Compound I, pH 7.4, 25 °C
# T2 construct: the four immunoglobulin domains and the peroxidase domain (amino acid residue 246-1314); made in house; host or cells: transient transfection
# T2 sequence (Q92626 246-1314): T1 sequence (Q92626 246-1314)
# Experimental: Pre-steady-state spectra were recorded with the stopped-flow apparatus SX.18MV (Applied Photophysics Ltd, Leatherhead, UK) connected to a diode array detector (DAD), with the first spectrum recorded 14 ms after the mixing of the reactants. Due to the inherent instability of Compound I of PXDN, the sequential mixing mode was used to generate Compound I. Equal volumes of 4 μM PXDN and 4 μM hydrogen peroxide were mixed in the aging loop. […] Interconversion of redox intermediates of PXDN was monitored for 60 s. […] All reactions were performed in 100 mM phosphate buffer, pH 7.4, and at 25 °C. Time traces (410 nm to monitor Compound I and ferric PXDN, 432 nm for Compound II and 550 and 590 nm to monitor Compound III [46]) were extracted from the time-resolved spectra.
# Human peroxidasin (PXDN) [5] = biological target: T1, Human peroxidasin (PXDN); experiment: Reversibility of inactivation of immobilized PXDN (wash, then Amplex assay); assay type: biochemical; conditions: 10 min, washed four times; for Irreversible Inhibition: 20 μM inhibitor, then Amplex assay
# Experimental: 200 ng of PXDN in 50 μL PBS was added per well of a Corning high-binding ELISA microplate for 2 h at room temperature. After four PBS washes, the respective inhibitors were added at a final concentration of 20 μM in phosphate buffer pH 7.4, before 10 μM of hydrogen peroxide was added in a final volume of 50 μL. In a control experiment, no hydrogen peroxide was added. After 10 min of incubation, the plates were washed four times with PBS and activity was measured as previously described, by adding 50 μL/well of 50 μM Amplex™ UltraRed Reagent, 20 μM hydrogen peroxide and 50 mM bromide in 50 mM phosphate buffer pH 7.4. The plate was incubated for 30 min in the dark at 37 °C before fluorescence was measured (λex 544 nm, λem 590 nm) and expressed as % activity of the untreated control.
# Human peroxidasin (PXDN) [6] = biological target: T1, Human peroxidasin (PXDN); experiment: Dansylglycine halogenation (bromination) activity assay; assay type: biochemical; conditions: 50 nM PXDN, 100 mM bromide; for inhibition at 24 µM: 24 μM inhibitor, 50 μM DG, 200 μM hydrogen peroxide, pH 7.4
# Experimental: as §2
# Dansylglycine (DG) was made up fresh every day and kept in the dark at room temperature. […] We mixed 50 nM PXDN in 100 mM phosphate buffer pH 7.4 with 50 μM DG and 100 mM bromide, before the reaction was started by adding 200 μM of hydrogen peroxide to a final volume of 1.5 mL. Loss of fluorescence was monitored for 60 s using a F-7000 Hitachi (Methrom-Inula, Vienna) fluorometer (λex 340 nm, λem 550 nm). […] The loss of fluorescence was fitted linearly to determine the rate of reaction (min^−1). The effect of the inhibitors was expressed as % inhibition, relative to the rate of the halogenation activity of PXDN without an inhibitor. IC50 values were determined by varying inhibitor concentrations (0–48 μM).
# PFHR9 cells = experiment: Tolerability / toxicity in cell culture; assay type: cell-based
# Experimental: as §1, with “°C.” for “°C. The digest was spun (20 kg, RT, 20 min) and the extent of cross-linking of the NCD of collagen IV was determined by the resolution of the supernatant protein on a 12% sodium dodecyl-sulfate polyacrylamide gel electrophoresis (SDS-PAGE).”
# [7] = system: collagen IV cross-link formation by PXDN; parameters: method as in PMID 22842973; conditions: cited from earlier work
# LPO = system: LPO; parameters: method as in PMID 8068644; conditions: cited from earlier work
# TPO = system: TPO; parameters: method as in PMID 8068644; conditions: cited from earlier work
# MPO = conditions: literature statement; cited from earlier work
# [8] = 100 μM bromide, 100 μM hydrogen peroxide, 1 h 37 °C, Western blot densitometry, read-out: IC50 DECM
molecule,measurement,setting,value
"O=C(O)CNc1ccc(Cl)cc1 [Cl-PAAA, (2-[(4-chlorophenyl)amino]-acetic acid)]",IC50,[1]; [8],3.7 µM
same,IC50 Cells,[2],toxic
"NNC(=O)CNc1ccc(Cl)cc1 [Cl-PAAH, (2-[(4-chlorophenyl)amino]-acetohydrazide)]",IC50,[1]; [8],12.7 µM
same,IC50,[2]; 168 h,~172 µM
NCCc1ccc(O)c(O)c1 [Dopamine],IC50,Human peroxidasin (PXDN) [3],10 nM
same,inhibition at 20 µM,"Human peroxidasin (PXDN) [4]; 20 μM inhibitor, 50 mM bromide",25 to 70%
same,Mechanism or Reaction Steady and Pre-Steady State Spectrophotometry,PXDN Compound I,Good substrate for CI and CII
"NNC(=O)CNc1ccccc1F [F-PAAH, 2-[(2-fluorophenyl)amino]-acetohydrazide]",IC50,Human peroxidasin (PXDN) [3],2400 nM
same,IC50,Human peroxidasin (PXDN) [4],900 nM
same,inhibition at 20 µM,"Human peroxidasin (PXDN) [4]; 20 μM inhibitor, 50 mM bromide",90%
same,Irreversible Inhibition,Human peroxidasin (PXDN) [5],no
same,inhibition of PXDN remaining after washing,"Human peroxidasin (PXDN) [5]; immobilized PXDN, 20 μM inhibitor without or with 10 μM hydrogen peroxide",no statistically significant difference
same,Mechanism or Reaction Steady and Pre-Steady State Spectrophotometry,PXDN Compound I,forms Compound III
same,IC50,[1]; [8],155 µM
same,IC50 Cells,[2],ineffective
"Oc1cc(O)cc(O)c1 [Phloroglucinol, 1,3,5-Trihydroxybenzene]",inhibition at 24 µM,Human peroxidasin (PXDN) [6],97 to 99%
same,IC50,Human peroxidasin (PXDN) [3],137 nM
same,inhibition at 20 µM,"Human peroxidasin (PXDN) [3]; 20 μM inhibitor, without bromide",> 95%
same,IC50,Human peroxidasin (PXDN) [4],948 nM
same,inhibition at 20 µM,"Human peroxidasin (PXDN) [4]; 20 μM inhibitor, 50 mM bromide",> 95%
same,Irreversible Inhibition,Human peroxidasin (PXDN) [5],yes
same,inhibition at 20 µM,"Human peroxidasin (PXDN) [5]; immobilized PXDN, 20 μM inhibitor without or with 10 μM hydrogen peroxide, read-out: inhibition of PXDN remaining after washing",> 95%
same,Mechanism or Reaction Steady and Pre-Steady State Spectrophotometry,PXDN Compound I,Adduct formation or tight ligand binding
same,IC50,[1]; [8],0.95 µM
same,IC50,[1]; read-out: IC50 inhibition of collagen IV cross-link formation in ECM model,~0.95 µM
same,tolerability in cell culture,PFHR9 cells,well tolerated in cell culture and does not impact cell proliferation
same,IC50,"[7]; read-out: IC50 inhibition of collagen IV cross-linking, previously published value",500 nM
same,inhibition of LPO,LPO,potently inhibits
same,inhibition of TPO,TPO,potently inhibits
same,inhibition of MPO,MPO,not to be inhibited
"COc1ccc2c(C)nc(N=C(N)N)nc2c1 [Quinazoline, 2-(7-methoxy-4-methylquinazoline-2-yl)guanidine]",IC50,Human peroxidasin (PXDN) [3],200 nM
same,inhibition at 20 µM,"Human peroxidasin (PXDN) [4]; 20 μM inhibitor, 50 mM bromide",25 to 70%
same,Mechanism or Reaction Steady and Pre-Steady State Spectrophotometry,PXDN Compound I,Good substrate for CI and CII
CSc1ccc2c(c1)N(CCC1CCCCN1C)c1ccccc1S2 (stereo not shown) [Thioridazine],inhibition at 24 µM,Human peroxidasin (PXDN) [6],97 to 99%
same,IC50,"Human peroxidasin (PXDN) [6]; inhibitor 0–48 μM, read-out: IC50 Halogenation Dansylglycin",1800 nM
same,enhancement of Amplex oxidation,"Human peroxidasin (PXDN) [3]; 20 μM compound, without bromide",about 50%
same,inhibition of Amplex oxidation in the presence of bromide,"Human peroxidasin (PXDN) [4]; 20 μM inhibitor, 50 mM bromide","neither activation of Amplex oxidation, nor much inhibition"
same,Mechanism or Reaction Steady and Pre-Steady State Spectrophotometry,PXDN Compound I,"Good substrate for CI, not a substrate for CII"
Cn1cc[nH]c1=S [methimazole],inhibition of collagen IV cross-link formation by PXDN,[7],potently inhibits
(E)-2-methoxy-4-((2-phtalazine-1yl)hydrazono)methyl)phenol [Hydralazine-vanillin],Mechanism or Reaction Steady and Pre-Steady State Spectrophotometry,PXDN Compound I,good peroxidation substrates
